Assay results from patent publication US12209140B2, “Therapeutics for the treatment of glaucoma” (Mayo Foundation for Medical Education and Research, priority 2014, dated 2025).
Entries after “also recorded” stand apart in the source; their conditions may differ.

Key:
[1] = test system: normotensive C57BL/6 mice; assay: intraocular pressure change in normotensive mice after treatment; assay type: in vivo, mouse; conditions: for combination treatment in mice with CKL/CKLP1 and prostaglandin analog LFA (FIG. 2 values, pressure change): alone or combined with latanoprost free acid, additive effects; for IOP lowering in the presence of Erk1/2 inhibitor U0126: mice (n=10), CKLP1+LFA+U0126
Method: FIG. 1B is a graph of the change in C57BL/6 mice intraocular pressure following treatment with cromakalim in DMSO or CKLP1 in aqueous carrier. FIG. 2 is a graph of the combination treatment in mice with […]1 and prostaglandin showing additive effects. CKL: -12.77±2.38, […]1: -16.11±2.61, CKLP1+LFA: -26.06±2.98. FIG. 1A is a graph of pressure readings obtained from a pair of human anterior eye segments where one eye was treated with a KATP channel opener prodrug (CKLP1) while the fellow anterior segment was treated with vehicle alone. […] FIG. 1B is a graph of pressure change obtained in normotensive C57BL/6 mice following treatment with parent (CKL) and prodrug (CKLP1). […] FIG. 3 is a graph showing the treatment with various forms of CKL. FIG. 4 is a graph showing the treatment of rabbits (n=5) with CKL-P1 in PBS, optically active isomer. FIG. 5 is a graph showing the treatment with ent-CKLP1(5 mM).

[2] = test system: human anterior eye segments; assay: human anterior segment perfusion organ culture (ex vivo human eye), pressure readings
Method: FIG. 1A is a graph of pressure readings obtained from a pair of human anterior eye segments where one eye was treated with a KATP channel opener prodrug (CKLP1) while the fellow anterior segment was treated with vehicle alone. […] FIG. 1B is a graph of pressure change obtained in normotensive C57BL/6 mice following treatment with parent (CKL) and prodrug (CKLP1).

[3] = test system: rabbits; assay: treatment of rabbits (intraocular pressure model); assay type: in vivo
Method: FIG. 4 is a graph showing the treatment of rabbits with CKL-P1 in PBS, optically active isomer. FIG. 3 is a graph showing the treatment with various forms of CKL. FIG. 4 is a graph showing the treatment of rabbits (n=5) with CKL-P1 in PBS, optically active isomer. FIG. 5 is a graph showing the treatment with ent-CKLP1(5 mM).

[4] = test system: rat cortical neurons; assay: H2O2 oxidative stress in rat cortical neurons, lactate dehydrogenase assayed; assay type: cell-based; conditions: 75 μM H2O2 for 24 hours with and without CKLP1
Description: The present invention also provides a CKLP1 composition used to treat neurons; a CKLP1 composition used for neuroprotection; a method of neuroprotection using a CKLP1 composition; a method of treating neurons using a CKLP1 composition; and methods and compositions for the treatment of ocular hypertension, blindness and loss of vision using a CKLP1 composition. The claimed CKLP1 composition provides neuroprotective properties. […] Therefore, CKLP1 and other prodrugs (as disclosed herein) may represent the first in class treatment for glaucoma that can treat the main risk factor (elevated intraocular pressure) and also the sight of damage (optic nerve).

[5] = test system: eyes; assay: activity in vivo in eyes
Description: The enantiomer of CKLP1 is referred to as “ent-CKLP1”. CKLP1 can be synthesized from levcromakalim while ent-CKLP1 can be synthesized from (+)-cromakalim.

Compound: CC1(C)Oc2ccc(C#N)cc2C(N2CCCC2=O)C1O (centres unmarked) [CKL, cromakalim, reference compound]
- combination treatment in mice with CKL/CKLP1 and prostaglandin analog LFA (FIG. 2 values, pressure change) [1]: −12.77±2.38

Compound: CC1(C)Oc2ccc(C#N)cc2[C@@H](N2CCCC2=O)[C@@H]1OP(=O)(O)O [CKLP1]
- pressure in human anterior segment perfusion organ culture ([2]; CKLP1 2 μM, fellow anterior segment treated with vehicle alone): reduction of pressure; also recorded: reduces pressure
- activity in ex vivo human eyeball model ([2]; ex vivo human eyeball): good activity
- IOP lowering in the presence of Erk1/2 inhibitor U0126 [1]: not able to lower pressure
- combination treatment in mice with CKL/CKLP1 and prostaglandin analog LFA (FIG. 2 values, pressure change) [1]: −16.11±2.61
- biological activity in normotensive mouse model ([1]; mouse): good activity
- activity in rabbit model [3]: good activity
- H2O2 oxidative stress (lactate dehydrogenase levels) [4]: inhibited H2O2 oxidative stress
- activity in vivo in eyes [5]: active

Compound: O=C(O)CCC/C=C\C[C@@H]1[C@@H](CC[C@@H](O)CCc2ccccc2)[C@H](O)C[C@@H]1O [LFA, latanoprost free acid, reference compound]
- IOP lowering in the presence of Erk1/2 inhibitor U0126 [1]: can lower IOP

Compound: CC1(C)Oc2ccc(C#N)cc2[C@H](N2CCCC2=O)[C@H]1OP(=O)(O)O [ent-CKLP1]
- activity in vivo in eyes [5]: active
